Measurements: patent publication US9212168B2 (priority 2011, dated 2015)

How the values were obtained:
[1] = molecular target: HCV genotype 1b replicon; assay: HCV genotype 1b replicon assay (Renilla luciferase readout); format: cell-based, hepatitis C virus; conditions: for Genotype 1b: HCV genotype 1b replicon; for EC50: Hepatitis C virus, read-out: Genotype 1b
Summary of the method: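 Reported as pEC50 derived from a 4-parameter fit of Renilla luciferase activity against concentration. Replicon cells (APC144, Huh7 background) were exposed to compound for 48 h in G418-free medium with final 0.5% DMSO, after seeding at 10,000 cells/well and 4 h adherence.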

[2] = test system: HCV genotype 1a replicon; assay: HCV genotype 1a replicon assay (NS3 protease activity readout); format: cell-based, hepatitis C virus; conditions: for Genotype 1a: HCV genotype 1a replicon; for EC50: Hepatitis C virus, read-out: Genotype 1a, HCV genotype 1a replicon
Summary of the method: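 EC50 values came from a 4-parameter robust fit of fluorescence (ex 340, em 509 nm) produced by NS3-specific protease in lysates, assayed with 15 μM FRET substrate for 20 min at 37° C, after 48 or 72 hours of compound exposure (0.5% DMSO) of Huh7.5-derived APC89 genotype 1a replicon cells.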

Structure (SMILES)	Genotype 1b [1]	Genotype 1a [2]	EC50 [1]	EC50 [2]
COC(=O)NC(C(=O)N1CC(OC)CC1c1nc(-c2ccc(-c3ccc(NC(=O)c4ccc(N5CCN(C(=O)C(C)(C)CO)CC5C)nc4)cc3OC(F)(F)F)cc2)c[nH]1)C(C)O (centres unmarked) [Example 16-15]	D (D represents pEC50>10 (EC50<0.1 nM))	C (C represents pEC50 between and 9 and about 10, (EC50 between 1 nM and 0.1 nM))		
COC(=O)N[C@H](C(=O)N1[C@@H](C)CC[C@H]1c1nc(-c2ccc(-c3cc(Cl)c(NC(=O)c4ccc(N5CCN(C(=O)C(C)(C)C)C[C@H]5C)nc4)cc3C(F)(F)F)cc2)c[nH]1)C(C)C [Example 17-2]	D (D represents pEC50>10 (EC50<0.1 nM))	D (D represents pEC50>10 (EC50<0.1 nM))		
COC(=O)N[C@H](C(=O)N1[C@@H](C)CC[C@H]1c1nc(-c2ccc(-c3cc(Cl)c(NC(=O)c4ccc(N5CCN(C(=O)C(C)(C)C)C[C@H]5C)nc4)cc3OC(F)(F)F)cc2)c[nH]1)C(C)C [Example 17-3]	D (D represents pEC50>10 (EC50<0.1 nM))	D (D represents pEC50>10 (EC50<0.1 nM))		
COC(=O)NC(C(=O)N1C(C)CCC1c1nc(-c2ccc(-c3cc(Cl)c(NC(=O)c4ccc(N5CCN(C(=O)C6CC6(C)C)CC5C)nc4)cc3OC(F)(F)F)cc2)c[nH]1)C(C)C (centres unmarked) [Example 17-4]	D (D represents pEC50>10 (EC50<0.1 nM))	D (D represents pEC50>10 (EC50<0.1 nM))		
COC(=O)N[C@H](C(=O)N1[C@@H](C)CC[C@H]1c1nc(-c2ccc(-c3cc(Cl)c(C(=O)Nc4ccc(N5CCN(C(=O)C(C)(C)C)C[C@H]5C)nc4)cc3OC(F)(F)F)cc2)c[nH]1)C1CCOCC1 [Example 18-5]	D (D represents pEC50>10 (EC50<0.1 nM))	D (D represents pEC50>10 (EC50<0.1 nM))		
COC(=O)N[C@H](C(=O)N1[C@@H](C)CC[C@H]1c1nc(-c2ccc(-c3cc(Cl)c(C(=O)Nc4ccc(N5CCN(C(=O)C(C)(C)C)C[C@H]5C)nc4)cc3OC(F)(F)F)cc2)c[nH]1)C1C[C@@H](C)O[C@@H](C)C1 (some centres unmarked) [Example 18-6]	D (D represents pEC50>10 (EC50<0.1 nM))	D (D represents pEC50>10 (EC50<0.1 nM))		
COC(=O)N[C@H](C(=O)N1C[C@@H](C)C[C@H]1c1nc(-c2ccc(-c3cc(Cl)c(NC(=O)c4ccc(N5CCN(C(=O)C(C)(C)C)C[C@H]5C)nc4)cc3C(F)(F)F)cc2)c[nH]1)C1CCOCC1 [Example 19-2]	D (D represents pEC50>10 (EC50<0.1 nM))	D (D represents pEC50>10 (EC50<0.1 nM))		
COC(=O)NC(C(=O)N1CC(C)CC1c1nc(-c2ccc(-c3cc(Cl)c(NC(=O)c4ccc(N5CCN(C(=O)C(C)(C)C)CC5C)nc4)cc3C(F)(F)F)cc2)c[nH]1)C1CC(C)OC(C)C1 (centres unmarked) [Example 19-9]	D (D represents pEC50>10 (EC50<0.1 nM))	D (D represents pEC50>10 (EC50<0.1 nM))		
COC(=O)N[C@H](C(=O)N1C[C@@H](C)C[C@H]1c1nc(-c2ccc(-c3cc(Cl)c(NC(=O)c4ccc(N5CCN(C(=O)C(C)(C)C)C[C@H]5C)nc4)cc3OC(F)(F)F)cc2)c(CO)[nH]1)C1CCOCC1 [Example 20-2]	D (D represents pEC50>10 (EC50<0.1 nM))	D (D represents pEC50>10 (EC50<0.1 nM))		
COC(=O)N[C@H](C(=O)N1C[C@@H](C)C[C@H]1c1nc(-c2ccc(-c3cc(Cl)c(NC(=O)c4ccc(N5CCN(C(=O)C(C)(C)CO)C[C@H]5C)nc4)cc3OC(F)(F)F)cc2)c(CO)[nH]1)C1CCOCC1 [Example 20-3]	D (D represents pEC50>10 (EC50<0.1 nM))	D (D represents pEC50>10 (EC50<0.1 nM))		
COC(=O)N[C@H](C(=O)N1C[C@@H](C)C[C@H]1c1nc(-c2ccc(-c3cc(Cl)c(NC(=O)c4ccc(N5CCN(C(=O)C(C)(C)C)C[C@@H]5C)nc4)cc3OC(F)(F)F)cc2)c[nH]1)C1CCOCC1 [Example 20-4]	D (D represents pEC50>10 (EC50<0.1 nM))	D (D represents pEC50>10 (EC50<0.1 nM))		
COC(=O)N[C@H](C(=O)N1C[C@@H](C)C[C@H]1c1nc(-c2ccc(-c3cc(Cl)c(NC(=O)c4ccc(N5CCN(C(=O)C(C)(C)C)[C@@H](C)C5)nc4)cc3OC(F)(F)F)cc2)c[nH]1)C1CCOCC1 [Example 20-5]	D (D represents pEC50>10 (EC50<0.1 nM))	D (D represents pEC50>10 (EC50<0.1 nM))		
COC(=O)N[C@H](C(=O)N1C[C@@H](C)C[C@H]1c1nc(-c2ccc(-c3cc(Cl)c(NC(=O)c4ccc(N5CCN(C(=O)C(C)(C)C)[C@H](C)C5)nc4)cc3OC(F)(F)F)cc2)c[nH]1)C1CCOCC1 [Example 20-6]	D (D represents pEC50>10 (EC50<0.1 nM))	D (D represents pEC50>10 (EC50<0.1 nM))		
COC[C@H]1CN(c2ccc(C(=O)Nc3cc(OC(F)(F)F)c(-c4ccc(-c5c[nH]c([C@@H]6C[C@H](C)CN6C(=O)[C@@H](NC(=O)OC)C6CCOCC6)n5)cc4)cc3Cl)cn2)CCN1C(=O)C(C)(C)C [Example 20-7]	D (D represents pEC50>10 (EC50<0.1 nM))	D (D represents pEC50>10 (EC50<0.1 nM))		
COC(=O)NC(C(=O)N1C[C@@H](C)C[C@H]1c1nc(-c2ccc(-c3c(F)cc(NC(=O)c4ccc(N5CCN(C(=O)C(C)(C)C)C[C@H]5C)nc4)cc3F)cc2)c[nH]1)C1CCOCC1 (some centres unmarked) [Example 21-3]			< 0.1 nM	< 0.1 nM
COC(=O)N[C@H](C(=O)N1C[C@@H](C)C[C@H]1c1nc(-c2ccc(-c3ccc(C(=O)Nc4ccc(N5CCN(C(=O)C(C)(C)C)C[C@H]5C)nc4)cc3)cc2)c[nH]1)C1CCOCC1 [Example 22-1]	D (D represents pEC50>10 (EC50<0.1 nM))	D (D represents pEC50>10 (EC50<0.1 nM))		
COC(=O)N[C@H](C(=O)N1C[C@@H](C)C[C@H]1c1nc(-c2ccc(-c3ccc(C(=O)Nc4ccc(N5CCN(C(=O)C(C)(C)C)C[C@H]5C)nc4)cc3OC(F)(F)F)cc2)c[nH]1)C1CCOCC1 [Example 22-3]	D (D represents pEC50>10 (EC50<0.1 nM))	D (D represents pEC50>10 (EC50<0.1 nM))		
COC(=O)N[C@H](C(=O)N1C[C@@H](C)C[C@H]1c1nc(-c2ccc(-c3ccc(C(=O)Nc4ccc(N5CCN(C(=O)[C@H]6CC6(C)C)C[C@H]5C)nc4)cc3OC(F)(F)F)cc2)c[nH]1)C1CCOCC1 [Example 22-4]	D (D represents pEC50>10 (EC50<0.1 nM))	D (D represents pEC50>10 (EC50<0.1 nM))		
COC(=O)N[C@H](C(=O)N1C[C@@H](C)C[C@H]1c1nc(-c2ccc(-c3cc(Cl)c(C(=O)Nc4ccc(N5CCN(C(=O)[C@H]6CC6(C)C)C[C@H]5C)nc4)cc3OC(F)(F)F)cc2)c[nH]1)C1CCOCC1 [Example 22-5]	D (D represents pEC50>10 (EC50<0.1 nM))	D (D represents pEC50>10 (EC50<0.1 nM))		
COC(=O)N[C@H](C(=O)N1C[C@@H](C)C[C@H]1c1nc(-c2ccc(-c3ccc(C(=O)Nc4ccc(N5CCN(C(=O)C(C)(C)C)C[C@H]5C)nc4)cc3OC(F)(F)F)cc2)c(Cl)[nH]1)C1CCOCC1 [Example 22-6]	D (D represents pEC50>10 (EC50<0.1 nM))	D (D represents pEC50>10 (EC50<0.1 nM))		
COC(=O)N[C@H](C(=O)N1C[C@@H](C)C[C@H]1c1nc(-c2ccc(-c3cc(Cl)c(C(=O)Nc4ccc(N5CCN(C(=O)C(C)(C)C)C[C@H]5C)nc4)cc3OC(F)(F)F)cc2)c(Cl)[nH]1)C1CCOCC1 [Example 22-7]			< 0.1 nM	< 0.1 nM
COC(=O)N[C@H](C(=O)N1C[C@@H](C)C[C@H]1c1nc(-c2ccc(-c3ccc(C(=O)Nc4ccc(N5CCN(C(=O)C(C)(C)CO)C[C@H]5C)nc4)cc3OC(F)(F)F)cc2)c(Cl)[nH]1)C1CCOCC1 [Example 22-8]	D (D represents pEC50>10 (EC50<0.1 nM))	D (D represents pEC50>10 (EC50<0.1 nM))		
COC(=O)N[C@H](C(=O)N1C[C@@H](C)C[C@H]1c1nc(-c2ccc(-c3cc(Cl)c(C(=O)Nc4ccc(N5CCN(C(=O)C(C)(C)CO)C[C@H]5C)nc4)cc3OC(F)(F)F)cc2)c(Cl)[nH]1)C1CCOCC1 [Example 22-9]			< 0.1 nM	< 0.1 nM
COC(=O)N[C@H](C(=O)N1C[C@@H](C)C[C@H]1c1nc(-c2ccc(-c3ccc(C(=O)Nc4ccc(N5CCN(C(=O)C(C)(C)C)C[C@H]5C)nc4)cc3)cc2)c(Cl)[nH]1)C1CCOCC1 [Example 22-10]	D (D represents pEC50>10 (EC50<0.1 nM))	D (D represents pEC50>10 (EC50<0.1 nM))		
COC(=O)N[C@H](C(=O)N1C[C@@H](C)C[C@H]1c1nc(-c2ccc(-c3ccc(C(=O)Nc4ccc(N5CCN(C(=O)[C@H]6CC6(C)C)C[C@H]5C)nc4)cc3)cc2)c(Cl)[nH]1)C1CCOCC1 [Example 22-11]	D (D represents pEC50>10 (EC50<0.1 nM))	D (D represents pEC50>10 (EC50<0.1 nM))		
COC(=O)N[C@H](C(=O)N1C[C@@H](OC)C[C@H]1c1nc(-c2ccc(-c3ccc(C(=O)Nc4ccc(N5CCN(C(=O)C(C)(C)C)C[C@H]5C)nc4)cc3OC(F)(F)F)cc2)c[nH]1)C1CCOCC1 [Example 22-12]	D (D represents pEC50>10 (EC50<0.1 nM))	D (D represents pEC50>10 (EC50<0.1 nM))		
COC(=O)N[C@H](C(=O)N1C[C@@H](OC)C[C@H]1c1nc(-c2ccc(-c3ccc(C(=O)Nc4ccc(N5CCN(C(=O)C(C)(C)C)C[C@H]5C)nc4)cc3)cc2)c[nH]1)C1CCOCC1 [Example 22-13]	D (D represents pEC50>10 (EC50<0.1 nM))	D (D represents pEC50>10 (EC50<0.1 nM))		
COC(=O)N[C@H](C(=O)N1C[C@@H](OC)C[C@H]1c1nc(-c2ccc(-c3cc(Cl)c(C(=O)Nc4ccc(N5CCN(C(=O)C(C)(C)C)C[C@H]5C)nc4)cc3OC(F)(F)F)cc2)c[nH]1)C1CCOCC1 [Example 22-16]	D (D represents pEC50>10 (EC50<0.1 nM))	D (D represents pEC50>10 (EC50<0.1 nM))		
